{"source": "the kinase profiling compilation of Christmann-Franck et al. (2016)", "experiment_in_all_cases": "radiometric filter-binding kinase assay, Kinase HotSpot", "conditions_in_all_cases": "compound 0.5 µM; ATP 10 µM", "key": {"BMX (human)": {"target": "BMX (human) (UniProt P51813)"}, "PRKG2 (human)": {"target": "PRKG2 (human) (UniProt Q13237)"}, "EPHA4 (human)": {"target": "EPHA4 (human) (UniProt P54764)"}, "GSG2 (human)": {"target": "GSG2 (human) (UniProt Q8TF76)"}, "CDC42BPB (human)": {"target": "CDC42BPB (human) (UniProt Q9Y5S2)"}, "ROCK1 (human)": {"target": "ROCK1 (human) (UniProt Q13464)"}, "EPHB1 (human)": {"target": "EPHB1 (human) (UniProt P54762)"}, "PRKCB1 (human)": {"target": "PRKCB1 (human) (UniProt P05771)"}, "PRKCD (human)": {"target": "PRKCD (human) (UniProt Q05655)"}, "STK4 (human)": {"target": "STK4 (human) (UniProt Q13043)"}, "PRKCE (human)": {"target": "PRKCE (human) (UniProt Q02156)"}, "MAP3K7 TAB1 (human)": {"target": "MAP3K7 TAB1 (human) (UniProt O43318+Q15750)"}, "NEK9 (human)": {"target": "NEK9 (human) (UniProt Q8TD19)"}, "MYO3B (human)": {"target": "MYO3B (human) (UniProt Q8WXR4)", "sequence (Q8WXR4 whole entry, looked up)": "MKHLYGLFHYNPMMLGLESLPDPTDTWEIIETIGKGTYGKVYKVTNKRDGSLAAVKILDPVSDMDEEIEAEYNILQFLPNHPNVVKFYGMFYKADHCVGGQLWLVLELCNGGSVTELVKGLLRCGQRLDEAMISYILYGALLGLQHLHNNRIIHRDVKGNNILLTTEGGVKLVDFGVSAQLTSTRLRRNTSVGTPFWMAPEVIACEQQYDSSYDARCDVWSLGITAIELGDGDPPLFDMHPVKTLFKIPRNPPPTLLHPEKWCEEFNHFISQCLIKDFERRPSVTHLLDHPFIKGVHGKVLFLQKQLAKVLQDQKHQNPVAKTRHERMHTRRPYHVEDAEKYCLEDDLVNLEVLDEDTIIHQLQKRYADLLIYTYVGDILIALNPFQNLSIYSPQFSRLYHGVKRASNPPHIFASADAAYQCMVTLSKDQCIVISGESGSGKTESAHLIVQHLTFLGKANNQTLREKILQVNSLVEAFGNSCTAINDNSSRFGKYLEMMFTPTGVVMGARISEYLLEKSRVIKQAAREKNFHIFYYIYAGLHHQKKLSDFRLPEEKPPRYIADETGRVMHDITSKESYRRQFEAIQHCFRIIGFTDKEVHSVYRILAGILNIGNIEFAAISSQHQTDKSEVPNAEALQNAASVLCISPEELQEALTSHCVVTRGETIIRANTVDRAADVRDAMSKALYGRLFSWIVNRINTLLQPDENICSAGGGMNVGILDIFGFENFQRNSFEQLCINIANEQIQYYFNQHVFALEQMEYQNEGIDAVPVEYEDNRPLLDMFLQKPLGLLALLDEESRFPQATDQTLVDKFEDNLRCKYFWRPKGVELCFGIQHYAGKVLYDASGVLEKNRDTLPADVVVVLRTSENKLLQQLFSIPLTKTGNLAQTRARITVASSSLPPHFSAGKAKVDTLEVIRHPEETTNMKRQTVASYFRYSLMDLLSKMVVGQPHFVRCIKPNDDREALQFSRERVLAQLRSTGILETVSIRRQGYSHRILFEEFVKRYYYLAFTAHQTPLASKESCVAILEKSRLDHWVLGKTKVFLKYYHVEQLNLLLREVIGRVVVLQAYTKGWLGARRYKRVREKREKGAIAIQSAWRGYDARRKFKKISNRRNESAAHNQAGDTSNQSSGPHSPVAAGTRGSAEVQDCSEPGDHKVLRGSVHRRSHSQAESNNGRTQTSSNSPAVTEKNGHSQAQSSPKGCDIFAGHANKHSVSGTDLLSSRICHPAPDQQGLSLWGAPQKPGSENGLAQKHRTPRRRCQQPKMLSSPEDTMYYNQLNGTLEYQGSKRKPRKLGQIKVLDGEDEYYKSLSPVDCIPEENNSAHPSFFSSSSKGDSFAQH"}, "LCK (human)": {"target": "LCK (human) (UniProt P06239)", "sequence (P06239 whole entry, looked up)": "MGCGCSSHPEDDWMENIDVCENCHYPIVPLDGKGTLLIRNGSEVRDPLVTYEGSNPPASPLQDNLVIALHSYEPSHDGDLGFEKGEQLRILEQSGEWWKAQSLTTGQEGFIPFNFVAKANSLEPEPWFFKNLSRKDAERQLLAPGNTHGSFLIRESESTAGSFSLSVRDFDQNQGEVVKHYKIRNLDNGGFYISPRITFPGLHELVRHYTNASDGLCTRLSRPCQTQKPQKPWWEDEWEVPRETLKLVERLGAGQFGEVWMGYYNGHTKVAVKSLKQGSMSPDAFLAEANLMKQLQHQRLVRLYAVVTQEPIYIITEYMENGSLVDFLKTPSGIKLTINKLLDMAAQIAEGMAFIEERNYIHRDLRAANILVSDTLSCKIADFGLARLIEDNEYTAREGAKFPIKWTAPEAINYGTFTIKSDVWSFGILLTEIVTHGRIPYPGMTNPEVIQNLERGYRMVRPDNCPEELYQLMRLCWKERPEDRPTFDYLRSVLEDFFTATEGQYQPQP"}, "LIMK1 (human)": {"target": "LIMK1 (human) (UniProt P53667)"}, "SLK (human)": {"target": "SLK (human) (UniProt Q9H2G2)", "sequence (Q9H2G2 whole entry, looked up)": "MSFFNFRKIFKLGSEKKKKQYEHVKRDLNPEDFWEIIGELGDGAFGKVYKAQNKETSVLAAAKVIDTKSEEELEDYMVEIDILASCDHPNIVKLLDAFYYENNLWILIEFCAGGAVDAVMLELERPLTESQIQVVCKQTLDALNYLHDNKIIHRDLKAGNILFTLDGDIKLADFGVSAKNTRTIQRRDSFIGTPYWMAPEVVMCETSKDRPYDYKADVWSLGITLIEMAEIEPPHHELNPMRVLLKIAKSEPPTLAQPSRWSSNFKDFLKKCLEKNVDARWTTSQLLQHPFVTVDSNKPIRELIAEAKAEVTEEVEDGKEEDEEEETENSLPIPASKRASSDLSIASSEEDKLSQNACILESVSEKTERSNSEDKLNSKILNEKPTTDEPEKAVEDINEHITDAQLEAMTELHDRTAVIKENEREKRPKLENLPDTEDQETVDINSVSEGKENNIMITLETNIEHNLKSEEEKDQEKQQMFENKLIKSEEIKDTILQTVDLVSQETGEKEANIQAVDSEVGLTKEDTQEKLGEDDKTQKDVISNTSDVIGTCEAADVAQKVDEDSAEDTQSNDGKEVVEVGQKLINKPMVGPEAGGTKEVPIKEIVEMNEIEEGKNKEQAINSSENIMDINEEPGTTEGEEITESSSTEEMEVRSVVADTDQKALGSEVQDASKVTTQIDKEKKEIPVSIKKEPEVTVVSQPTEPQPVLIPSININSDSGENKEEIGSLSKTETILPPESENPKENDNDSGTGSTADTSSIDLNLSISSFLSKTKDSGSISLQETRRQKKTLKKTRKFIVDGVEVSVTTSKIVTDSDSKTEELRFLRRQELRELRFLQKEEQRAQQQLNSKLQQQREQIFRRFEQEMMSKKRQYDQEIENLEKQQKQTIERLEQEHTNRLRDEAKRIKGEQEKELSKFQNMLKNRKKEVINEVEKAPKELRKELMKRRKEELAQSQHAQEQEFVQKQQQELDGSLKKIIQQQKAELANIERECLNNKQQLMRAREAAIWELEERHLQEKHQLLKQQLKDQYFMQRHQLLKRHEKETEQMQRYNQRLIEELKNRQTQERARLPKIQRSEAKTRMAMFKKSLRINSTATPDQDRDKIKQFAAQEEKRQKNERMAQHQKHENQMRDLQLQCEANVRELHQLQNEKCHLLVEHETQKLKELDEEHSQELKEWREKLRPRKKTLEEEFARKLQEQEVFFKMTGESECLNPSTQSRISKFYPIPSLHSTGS"}, "PRKD3 (human)": {"target": "PRKD3 (human) (UniProt O94806)"}, "CLK2 (human)": {"target": "CLK2 (human) (UniProt P49760)"}, "CDK4 CCND1 (human)": {"target": "CDK4 CCND1 (human) (UniProt P24385+P11802)"}, "DMPK (human)": {"target": "DMPK (human) (UniProt Q09013)"}, "NTRK3 (human)": {"target": "NTRK3 (human) (UniProt Q16288)"}, "RPS6KA5 KD2 (human)": {"target": "RPS6KA5 KD2 (human) (UniProt O75582)"}, "MLTK (human)": {"target": "MLTK (human) (UniProt Q9NYL2)"}, "SRMS (human)": {"target": "SRMS (human) (UniProt Q9H3Y6)"}, "AKT2 (human)": {"target": "AKT2 (human) (UniProt P31751)", "sequence (P31751 whole entry, looked up)": "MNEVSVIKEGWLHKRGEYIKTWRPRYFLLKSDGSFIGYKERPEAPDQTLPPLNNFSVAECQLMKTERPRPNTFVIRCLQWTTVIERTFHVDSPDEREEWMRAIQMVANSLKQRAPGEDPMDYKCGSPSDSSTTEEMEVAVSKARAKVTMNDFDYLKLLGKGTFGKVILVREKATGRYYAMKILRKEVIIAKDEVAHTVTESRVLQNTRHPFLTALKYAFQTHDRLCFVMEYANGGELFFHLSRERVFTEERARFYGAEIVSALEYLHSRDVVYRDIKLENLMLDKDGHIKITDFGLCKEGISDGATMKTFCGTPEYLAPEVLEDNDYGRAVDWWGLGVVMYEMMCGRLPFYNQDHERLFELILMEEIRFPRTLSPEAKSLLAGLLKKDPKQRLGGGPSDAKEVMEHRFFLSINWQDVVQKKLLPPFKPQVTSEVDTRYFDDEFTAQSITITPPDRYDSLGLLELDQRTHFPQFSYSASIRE"}, "NUAK2 (human)": {"target": "NUAK2 (human) (UniProt Q9H093)"}, "YES1 (human)": {"target": "YES1 (human) (UniProt P07947)"}, "NEK2 (human)": {"target": "NEK2 (human) (UniProt P51955)"}, "SGK2 (human)": {"target": "SGK2 (human) (UniProt Q9HBY8)"}, "VRK1 (human)": {"target": "VRK1 (human) (UniProt Q99986)"}, "MAP2K1 (human)": {"target": "MAP2K1 (human) (UniProt Q02750)"}, "TTK (human)": {"target": "TTK (human) (UniProt P33981)"}, "PBK (human)": {"target": "PBK (human) (UniProt Q96KB5)"}, "IKBKE (human)": {"target": "IKBKE (human) (UniProt Q14164)"}, "BRSK1 (human)": {"target": "BRSK1 (human) (UniProt Q8TDC3)"}, "PRKG1 (human)": {"target": "PRKG1 (human) (UniProt Q13976)", "sequence (Q13976 whole entry, looked up)": "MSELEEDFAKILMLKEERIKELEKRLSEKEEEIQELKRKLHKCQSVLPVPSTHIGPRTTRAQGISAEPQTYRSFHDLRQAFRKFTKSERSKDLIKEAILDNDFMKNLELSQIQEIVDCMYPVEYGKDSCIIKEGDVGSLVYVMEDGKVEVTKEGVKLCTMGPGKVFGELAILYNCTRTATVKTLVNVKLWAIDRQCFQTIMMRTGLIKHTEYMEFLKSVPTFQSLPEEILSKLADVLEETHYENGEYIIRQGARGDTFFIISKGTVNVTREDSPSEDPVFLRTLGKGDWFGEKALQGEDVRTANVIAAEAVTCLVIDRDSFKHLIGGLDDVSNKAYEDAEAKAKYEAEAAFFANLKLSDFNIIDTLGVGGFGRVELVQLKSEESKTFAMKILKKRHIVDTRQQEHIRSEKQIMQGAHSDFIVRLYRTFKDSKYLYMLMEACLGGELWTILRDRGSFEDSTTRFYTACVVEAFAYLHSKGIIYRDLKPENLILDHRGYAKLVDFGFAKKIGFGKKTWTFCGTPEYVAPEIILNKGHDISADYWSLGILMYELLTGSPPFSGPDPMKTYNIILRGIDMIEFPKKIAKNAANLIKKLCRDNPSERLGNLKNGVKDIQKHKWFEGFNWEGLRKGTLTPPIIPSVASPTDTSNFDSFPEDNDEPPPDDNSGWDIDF"}, "GRK6 (human)": {"target": "GRK6 (human) (UniProt P43250)", "sequence (P43250 whole entry, looked up)": "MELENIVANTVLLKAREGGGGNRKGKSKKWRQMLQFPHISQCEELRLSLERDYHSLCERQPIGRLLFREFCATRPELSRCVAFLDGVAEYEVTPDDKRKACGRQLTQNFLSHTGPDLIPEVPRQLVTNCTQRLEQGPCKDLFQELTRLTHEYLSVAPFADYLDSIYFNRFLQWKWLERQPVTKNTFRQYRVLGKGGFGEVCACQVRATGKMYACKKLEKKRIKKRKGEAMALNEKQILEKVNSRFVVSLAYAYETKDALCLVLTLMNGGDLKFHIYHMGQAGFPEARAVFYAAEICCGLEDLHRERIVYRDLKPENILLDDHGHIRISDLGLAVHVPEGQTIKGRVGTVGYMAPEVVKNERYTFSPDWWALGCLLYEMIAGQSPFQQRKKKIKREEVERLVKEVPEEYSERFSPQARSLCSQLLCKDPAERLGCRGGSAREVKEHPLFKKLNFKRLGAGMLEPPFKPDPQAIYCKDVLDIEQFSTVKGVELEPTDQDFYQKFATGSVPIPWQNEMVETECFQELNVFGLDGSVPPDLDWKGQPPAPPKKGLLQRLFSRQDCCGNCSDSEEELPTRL"}, "CAMK2D (human)": {"target": "CAMK2D (human) (UniProt Q13557)"}, "TAOK1 (human)": {"target": "TAOK1 (human) (UniProt Q7L7X3)"}, "DAPK1 (human)": {"target": "DAPK1 (human) (UniProt P53355)"}, "CSK (human)": {"target": "CSK (human) (UniProt P41240)"}}, "note": "Several values for one entry are separate records, joined by “and”; a condition that tells them apart may be missing. Equal entries are not always repeated."}
{"smiles": "N#C/C(=C(/N)Sc1ccc(N)cc1)c1ccccc1C(F)(F)F", "values": [{"measurement": "residual activity", "setting": "BMX (human)", "value": 99.7, "unit": "%"}, {"measurement": "residual activity", "setting": "PRKG2 (human)", "value": 113, "unit": "%"}, {"measurement": "residual activity", "setting": "EPHA4 (human)", "value": 99.3, "unit": "%"}, {"measurement": "residual activity", "setting": "GSG2 (human)", "value": 99.9, "unit": "%"}, {"measurement": "residual activity", "setting": "CDC42BPB (human)", "value": 104, "unit": "%"}, {"measurement": "residual activity", "setting": "ROCK1 (human)", "value": 104, "unit": "%"}, {"measurement": "residual activity", "setting": "EPHB1 (human)", "value": 98.8, "unit": "%"}, {"measurement": "residual activity", "setting": "PRKCB1 (human)", "value": 93.1, "unit": "%"}, {"measurement": "residual activity", "setting": "PRKCD (human)", "value": 97.5, "unit": "%"}, {"measurement": "residual activity", "setting": "STK4 (human)", "value": 89.7, "unit": "%"}, {"measurement": "residual activity", "setting": "PRKCE (human)", "value": 104, "unit": "%"}, {"measurement": "residual activity", "setting": "MAP3K7 TAB1 (human)", "value": 93.5, "unit": "%"}, {"measurement": "residual activity", "setting": "NEK9 (human)", "value": 99.2, "unit": "%"}, {"measurement": "residual activity", "setting": "MYO3B (human)", "value": 98.3, "unit": "%"}, {"measurement": "residual activity", "setting": "LCK (human)", "value": 107, "unit": "%"}, {"measurement": "residual activity", "setting": "LIMK1 (human)", "value": 98.7, "unit": "%"}, {"measurement": "residual activity", "setting": "SLK (human)", "value": 102, "unit": "%"}, {"measurement": "residual activity", "setting": "PRKD3 (human)", "value": 96.8, "unit": "%"}, {"measurement": "residual activity", "setting": "CLK2 (human)", "value": 100, "unit": "%"}, {"measurement": "residual activity", "setting": "CDK4 CCND1 (human)", "value": 106, "unit": "%"}, {"measurement": "residual activity", "setting": "DMPK (human)", "value": 102, "unit": "%"}, {"measurement": "residual activity", "setting": "NTRK3 (human)", "value": 101, "unit": "%"}, {"measurement": "residual activity", "setting": "RPS6KA5 KD2 (human)", "value": 97.9, "unit": "%"}, {"measurement": "residual activity", "setting": "MLTK (human)", "value": 105, "unit": "%"}, {"measurement": "residual activity", "setting": "SRMS (human)", "value": 105, "unit": "%"}, {"measurement": "residual activity", "setting": "AKT2 (human)", "value": 102, "unit": "%"}, {"measurement": "residual activity", "setting": "NUAK2 (human)", "value": 75, "unit": "%"}, {"measurement": "residual activity", "setting": "YES1 (human)", "value": 111, "unit": "%"}, {"measurement": "residual activity", "setting": "NEK2 (human)", "value": 94.9, "unit": "%"}, {"measurement": "residual activity", "setting": "SGK2 (human)", "value": 99, "unit": "%"}, {"measurement": "residual activity", "setting": "VRK1 (human)", "value": 100, "unit": "%"}, {"measurement": "residual activity", "setting": "MAP2K1 (human)", "value": 97.9, "unit": "%"}, {"measurement": "residual activity", "setting": "TTK (human)", "value": 93.6, "unit": "%"}, {"measurement": "residual activity", "setting": "PBK (human)", "value": 95.3, "unit": "%"}, {"measurement": "residual activity", "setting": "IKBKE (human)", "value": 102, "unit": "%"}, {"measurement": "residual activity", "setting": "BRSK1 (human)", "value": 91.2, "unit": "%"}, {"measurement": "residual activity", "setting": "PRKG1 (human)", "value": "100% and 98.8%"}, {"measurement": "residual activity", "setting": "GRK6 (human)", "value": 100, "unit": "%"}, {"measurement": "residual activity", "setting": "CAMK2D (human)", "value": 93.4, "unit": "%"}, {"measurement": "residual activity", "setting": "TAOK1 (human)", "value": 98.3, "unit": "%"}, {"measurement": "residual activity", "setting": "DAPK1 (human)", "value": 104, "unit": "%"}, {"measurement": "residual activity", "setting": "CSK (human)", "value": 90.9, "unit": "%"}]}
{"smiles": "O=C1Nc2ccc(Cl)cc2/C1=C/c1cc(Cl)c(O)c(Cl)c1", "values": [{"measurement": "residual activity", "setting": "BMX (human)", "value": 94.8, "unit": "%"}, {"measurement": "residual activity", "setting": "PRKG2 (human)", "value": 97, "unit": "%"}, {"measurement": "residual activity", "setting": "EPHA4 (human)", "value": 93.1, "unit": "%"}, {"measurement": "residual activity", "setting": "GSG2 (human)", "value": 8.65, "unit": "%"}, {"measurement": "residual activity", "setting": "CDC42BPB (human)", "value": 91.4, "unit": "%"}, {"measurement": "residual activity", "setting": "ROCK1 (human)", "value": 93.2, "unit": "%"}, {"measurement": "residual activity", "setting": "EPHB1 (human)", "value": 91, "unit": "%"}, {"measurement": "residual activity", "setting": "PRKCB1 (human)", "value": 97.3, "unit": "%"}, {"measurement": "residual activity", "setting": "PRKCD (human)", "value": 86.7, "unit": "%"}, {"measurement": "residual activity", "setting": "STK4 (human)", "value": 32.5, "unit": "%"}, {"measurement": "residual activity", "setting": "PRKCE (human)", "value": 100, "unit": "%"}, {"measurement": "residual activity", "setting": "MAP3K7 TAB1 (human)", "value": 86.8, "unit": "%"}, {"measurement": "residual activity", "setting": "NEK9 (human)", "value": 103, "unit": "%"}, {"measurement": "residual activity", "setting": "MYO3B (human)", "value": 17.4, "unit": "%"}, {"measurement": "residual activity", "setting": "LCK (human)", "value": 88.2, "unit": "%"}, {"measurement": "residual activity", "setting": "LIMK1 (human)", "value": 83.7, "unit": "%"}, {"measurement": "residual activity", "setting": "SLK (human)", "value": 95.3, "unit": "%"}, {"measurement": "residual activity", "setting": "PRKD3 (human)", "value": 80.7, "unit": "%"}, {"measurement": "residual activity", "setting": "CLK2 (human)", "value": 95.5, "unit": "%"}, {"measurement": "residual activity", "setting": "CDK4 CCND1 (human)", "value": 94.7, "unit": "%"}, {"measurement": "residual activity", "setting": "DMPK (human)", "value": 112, "unit": "%"}, {"measurement": "residual activity", "setting": "NTRK3 (human)", "value": 44.8, "unit": "%"}, {"measurement": "residual activity", "setting": "RPS6KA5 KD2 (human)", "value": 86.1, "unit": "%"}, {"measurement": "residual activity", "setting": "MLTK (human)", "value": 77.4, "unit": "%"}, {"measurement": "residual activity", "setting": "SRMS (human)", "value": 86.3, "unit": "%"}, {"measurement": "residual activity", "setting": "AKT2 (human)", "value": 93.9, "unit": "%"}, {"measurement": "residual activity", "setting": "NUAK2 (human)", "value": 78.7, "unit": "%"}, {"measurement": "residual activity", "setting": "YES1 (human)", "value": 78.3, "unit": "%"}, {"measurement": "residual activity", "setting": "NEK2 (human)", "value": 86, "unit": "%"}, {"measurement": "residual activity", "setting": "SGK2 (human)", "value": 89.2, "unit": "%"}, {"measurement": "residual activity", "setting": "VRK1 (human)", "value": 80.6, "unit": "%"}, {"measurement": "residual activity", "setting": "MAP2K1 (human)", "value": 96.8, "unit": "%"}, {"measurement": "residual activity", "setting": "TTK (human)", "value": 84.4, "unit": "%"}, {"measurement": "residual activity", "setting": "PBK (human)", "value": 86.1, "unit": "%"}, {"measurement": "residual activity", "setting": "IKBKE (human)", "value": 94.7, "unit": "%"}, {"measurement": "residual activity", "setting": "BRSK1 (human)", "value": 81.3, "unit": "%"}, {"measurement": "residual activity", "setting": "PRKG1 (human)", "value": "102% and 96.8%"}, {"measurement": "residual activity", "setting": "GRK6 (human)", "value": 89.6, "unit": "%"}, {"measurement": "residual activity", "setting": "CAMK2D (human)", "value": 80.2, "unit": "%"}, {"measurement": "residual activity", "setting": "TAOK1 (human)", "value": 71.6, "unit": "%"}, {"measurement": "residual activity", "setting": "DAPK1 (human)", "value": 90, "unit": "%"}, {"measurement": "residual activity", "setting": "CSK (human)", "value": 85, "unit": "%"}]}
